Key:
Jeko-1 (SOX11+) = assay: Cell viability assay (CellTiter-Blue resazurin reduction); assay type: cell-based; details: Homo sapiens, JeKo-1 cells; for IC50: 0-40 μM; for viability at 20 µM: 20 μM compound, normalized to 0.2% DMSO
How it was run: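 Cells were exposed to compound for 72 h, then resazurin reduction (CellTiter-Blue, 2 h) was read by fluorescence and converted to viable cell number via a standard curve. Viability was normalised to 0.2% DMSO-treated cells. IC50 came from a sigmoidal dose-response fit, three separate experiments.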

(His)6-SOX11-DBD protein = molecular target: T1, (His)6-SOX11-DBD protein (Homo sapiens, UniProt P35716); assay: Surface Plasmon Resonance (SPR) assay; assay type: binding; details: immobilized recombinant (His)6-SOX11-DBD, 25° C., compounds 5-40 μM, mean of three experiments
T1 construct: Recombinant (His)6-SOX11-DBD protein was immobilized
T1 sequence (P35716 49-117 limits assumed): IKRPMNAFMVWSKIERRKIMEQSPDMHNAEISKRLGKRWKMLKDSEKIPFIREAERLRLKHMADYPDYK

Row | SMILES | IC50 (Jeko-1 (SOX11+); JeKo-1, 72 h) [µM] | viability at 20 µM (Jeko-1 (SOX11+); JeKo-1, 72 h) [%] | Kd ((His)6-SOX11-DBD protein) [µM] | viability at 20 µM (Jeko-1 (SOX11+); 72 hours) [%] | IC50 (Jeko-1 (SOX11+); 72 hours) [µM]
1 | CC1Sc2ccc(C(=O)Nc3ccc(S(=O)(=O)NC4CCCCC4)cc3)cc2NC1=O (stereo not drawn) | 8 | 30.4 | 19 |  | 
2 | O=C(Nc1ccc(S(=O)(=O)Nc2ccccc2)cc1)c1ccc2ccncc2c1 | 5 | 24.8 | 37.9 |  | 
3 | CC1Sc2ccc(C(=O)Nc3ccc(S(=O)(=O)Nc4ccccc4)cc3F)cc2NC1=O (stereo not drawn) | > 20 | 90 | 31 |  | 
4 | O=C(Nc1cccc(S(=O)(=O)N2CCCCC2)c1)c1ccc2c(c1)CCCS2 |  | 54.2 | 3.01 |  | 
5 | CC1Sc2ccc(C(=O)Nc3cccc(S(=O)(=O)Nc4ccc(NC(=O)OC(C)(C)C)cc4)c3)cc2NC1=O (stereo not drawn) | > 20 | 67.4 | 5.07 |  | 
6 | O=C(Nc1ccc(S(=O)(=O)Nc2ccccc2)cc1)c1ccc2ccccc2c1 | > 20 | 96.3 | 3.42 |  | 
7 | CC1Sc2ccc(C(=O)Nc3cccc(S(=O)(=O)N(C)C)c3)cc2NC1=O (stereo not drawn) | 8.5 | 1.43 | 69.5 |  | 
8 | CC(C)NS(=O)(=O)c1cccc(NC(=O)c2ccc3c(c2)NC(=O)C(C)S3)c1 (stereo not drawn) | 8 | 17.6 | 90.9 |  | 
9 | Cc1ccc(NC(=O)c2ccc3c(c2)N(C)C(=O)CS3)cc1S(=O)(=O)N1CCCC1 |  | 90.9 | 35.9 |  | 
10 | CC1Sc2ccc(C(=O)Nc3ccc(S(=O)(=O)Nc4ccc(Cl)cc4)cc3)cc2NC1=O (stereo not drawn) | 15 | 9.99 | 0.861 |  | 
11 | Cc1cccc(NS(=O)(=O)c2ccc(NC(=O)c3ccc4c(c3)NC(=O)C(C)S4)cc2)c1 (stereo not drawn) | 11 | 0.58 | 1.16 |  | 
12 | CC1Sc2ccc(C(=O)Nc3cccc(S(=O)(=O)Nc4ccc(F)cc4)c3)cc2NC1=O (stereo not drawn) | > 20 | 55.6 | 8.48 |  | 
13 | O=C(Nc1ccc(S(=O)(=O)Nc2ccccc2)cc1)c1ccc2c(c1)CCCS2 | 12 | 1.95 | 1.62 |  | 
14 | Cc1ccccc1NS(=O)(=O)c1cccc(NC(=O)c2ccc3c(c2)NC(=O)C(C)S3)c1 (stereo not drawn) | 6 | 6.11 | 7.42 |  | 
15 | CC1Sc2ccc(C(=O)Nc3cccc(S(=O)(=O)Nc4cccc(Cl)c4)c3)cc2NC1=O (stereo not drawn) | < 20 | 28.8 | 3.15 |  | 
16 | CC1Sc2ccc(C(=O)Nc3cccc(CNc4ccc(OS(=O)(=O)F)cc4)c3)cc2NC1=O (stereo not drawn) |  |  | 3.53 | 4.81 | 10
17 | CC1Sc2ccc(C(=O)Nc3ccc(S(=O)(=O)Nc4ccccc4)c(Cl)c3)cc2NC1=O (stereo not drawn) | 5 | 1.8 | 4.36 |  | 
18 | CN1C(=O)CSc2ccc(C(=O)Nc3ccc(S(=O)(=O)N4CCCC4)c(Cl)c3)cc21 |  | 16 | 27.4 |  | 
19 | CC1Sc2ccc(C(=O)Nc3cccc(S(=O)(=O)NC4CCCC4)c3)cc2NC1=O (stereo not drawn) | 16 | 38.5 | 15.4 |  | 
20 | Cc1cc(NC(=O)c2ccc3c(c2)NC(=O)C(C)S3)ccc1S(=O)(=O)Nc1ccccc1 (stereo not drawn) | 10 | 1.22 | 2.5 |  | 
21 | CCN(c1ccccc1)S(=O)(=O)c1cccc(NC(=O)c2ccc3snnc3c2)c1 | 8.5 | 4.86 | 2.65 |  | 

Row | SMILES | IC50 (Jeko-1 (SOX11+); JeKo-1, 72 h) [µM] | viability at 20 µM (Jeko-1 (SOX11+); JeKo-1, 72 h) [%] | Kd ((His)6-SOX11-DBD protein) [µM] | viability at 20 µM (Jeko-1 (SOX11+); 72 hours) [%] | IC50 (Jeko-1 (SOX11+); 72 hours) [µM]
22 | CC1Sc2ccc(C(=O)ONc3ccc(S(=O)(=O)Nc4ccccc4)nc3)cc2NC1=O (stereo not drawn) | > 20 | 90 | 5.07 |  | 
23 | CC1Sc2ccc(C(=O)Nc3ccc(S(=O)(=O)Nc4ccccn4)cc3)cc2NC1=O (stereo not drawn) | > 20 | 96.4 | 130 |  | 
24 | CC1Sc2ccc(C(=O)Nc3cccc(S(=O)(=O)Nc4ccc(N)cc4)c3)cc2NC1=O (stereo not drawn) | > 20 | 59.7 | 59.7 |  | 
25 | CC1Sc2ccc(NC(=O)c3ccc(S(=O)(=O)Nc4ccccc4)cc3)cc2NC1=O (stereo not drawn) | 9 | 33.5 | 33.2 |  | 
26 | CC1Sc2ccc(C(=O)Nc3cccc(S(=O)(=O)NC4CCN(C(=O)OC(C)(C)C)CC4)c3)cc2NC1=O (stereo not drawn) | 15 | 13 | 142 |  | 
27 | CN(c1ccccc1)S(=O)(=O)c1ccc(NC(=O)c2ccc3nncn3c2)cc1 | > 20 | 126 | 4.07 |  | 
28 | CC1Sc2ccc(C(=O)Nc3ccc(S(=O)(=O)N4CCCC4)c(Cl)c3)cc2NC1=O (stereo not drawn) |  | 8.93 | 13.8 |  | 
29 | CC1Sc2ccc(C(=O)Nc3cccc(S(=O)(=O)N4CCNCC4)c3)cc2NC1=O (stereo not drawn) | > 20 | 114 | 131 |  | 
30 | CC1Sc2ccc(C(=O)Nc3ccc(S(=O)(=O)Nc4ccccc4)cc3)cc2N(C)C1=O (stereo not drawn) | 8 | 1.23 | 1.95 |  | 
31 | O=C(Nc1ccc(S(=O)(=O)Nc2ccccc2)cc1)c1ccc2nc[nH]c2c1 | > 20 | 93.6 | 230 |  | 
32 | CC1Sc2ccc(C(=O)Nc3ccc(S(=O)(=O)Nc4ccc(F)cc4)cc3)cc2NC1=O (stereo not drawn) | > 20 | 80.1 | 15.9 |  | 
33 | CC1Sc2ccc(C(=O)Nc3ccc(S(=O)(=O)Nc4cc[nH]c(=O)c4)cc3)cc2NC1=O (stereo not drawn) | 18 | 34.8 | 24.8 |  | 
34 | CC1Sc2ccc(C(=O)Nc3ccc(S(N)(=O)=O)cc3)cc2NC1=O (stereo not drawn) | > 20 | 101 | 83.3 |  | 
35 | CC1Sc2ccc(C(=O)Nc3ccc(CN(C)c4ccccc4)cc3)cc2NC1=O (stereo not drawn) |  | 84.9 | 3.62 |  | 
36 | CC1Sc2ccc(C(=O)Nc3ccc(S(=O)(=O)Nc4ccccc4C(F)(F)F)cc3)cc2NC1=O (stereo not drawn) | 10 | 8.61 | 1.1 |  | 
37 | CC1Sc2ccc(C(=O)Nc3cccc(S(=O)(=O)N4CCCCC4)c3)cc2NC1=O (stereo not drawn) | 10 | 0.6 | 41.5 |  | 
38 | c1ccc(COc2cccc(CNc3ccc4cnccc4c3)c2)cc1 |  | 1.12 | 47.8 |  | 
39 | C[C@@H]1Sc2ccc(C(=O)Nc3ccc(S(=O)(=O)Nc4ccccc4)cc3)cc2NC1=O | 12.5 | 12.8 | 31.9 |  | 
40 | O=C(Nc1cccc(CNc2ccccc2)c1)c1ccc2c(c1)CCCS2 |  | 85.3 | 7.34 |  | 
41 | CC1Sc2ccc(C(=O)Nc3ccc(S(=O)(=O)N4CCCCCC4)cc3)cc2NC1=O (stereo not drawn) | 7.5 | 0.46 | 2.63 |  | 
42 | CC1Sc2ccc(C(=O)Nc3cccc(S(=O)(=O)N4CCOCC4)c3)cc2NC1=O (stereo not drawn) | 8 | 30.8 | 85 |  | 

Row | SMILES | IC50 (Jeko-1 (SOX11+); JeKo-1, 72 h) [µM] | viability at 20 µM (Jeko-1 (SOX11+); JeKo-1, 72 h) [%] | Kd ((His)6-SOX11-DBD protein) [µM] | viability at 20 µM (Jeko-1 (SOX11+); 72 hours) [%] | IC50 (Jeko-1 (SOX11+); 72 hours) [µM]
43 | Cc1nc2cc(C(=O)Nc3ccc(S(=O)(=O)Nc4ccccc4)cc3)ccc2s1 | 12 | 16.6 | 21.2 |  | 
44 | Cc1ccc(NC(=O)c2ccc3c(c2)NC(=O)CS3)cc1S(=O)(=O)Nc1cccc(Cl)c1 | 10 | 26.3 | 3.37 |  | 
45 | CC(C)NS(=O)(=O)c1ccc(NC(=O)c2ccc3c(c2)NC(=O)C(C)S3)cc1 (stereo not drawn) | 8 | 20.3 | 9.79 |  | 
46 | CN(c1ccccc1)S(=O)(=O)c1cccc(NC(=O)c2ccc3snnc3c2)c1 | 10 | 10.6 | 8.33 |  | 
47 | CC1Sc2ccc(C(=O)Nc3ccc(S(=O)(=O)Nc4cccnc4)cc3)cc2NC1=O (stereo not drawn) | > 20 | 92 | 7.23 |  | 
48 | O=C1CSc2ccc(C(=O)Nc3cccc(S(=O)(=O)N4CCCC4)c3)cc2N1 | 20 | 45.4 | 38.6 |  | 
49 | O=C(Nc1ccc(S(=O)(=O)Nc2ccccc2)cc1)c1ccc2snnc2c1 | 5 to 10 | 34.3 | 5.65 |  | 
50 | O=C(Nc1ccc(S(=O)(=O)Nc2ccccc2)cc1)c1ccc2oc(=O)[nH]c2c1 | 20 | 51.8 | 8.68 |  | 
51 | CC1Sc2ccc(C(=O)Nc3ccc(S(=O)(=O)Nc4ccc(O)cc4)cc3)cc2NC1=O (stereo not drawn) | < 20 | 13.7 | 32 |  | 
52 | CCN(CC)S(=O)(=O)c1ccc(NC(=O)c2ccc3c(c2)NC(=O)C(C)S3)cc1 (stereo not drawn) | 7.5 | 0.6 | 30.9 |  | 
53 | CC1Sc2ccc(C(=O)Nc3ccc(S(=O)(=O)NC4CCCC4)cc3)cc2NC1=O (stereo not drawn) | 15 | 36.3 | 13.4 |  | 
54 | CC1Sc2ccc(C(=O)Nc3ccc(S(=O)(=O)Nc4ccc(N)cc4)cc3)cc2NC1=O (stereo not drawn) | > 20 | 88 | 19.6 |  | 
55 | CC1Sc2ccc(C(=O)Nc3ccc(CNc4ccccc4)cc3)cc2NC1=O (stereo not drawn) |  | 108 | 0.258 |  | 
56 | CN1C(=O)CSc2ccc(C(=O)Nc3ccc(S(=O)(=O)N4CCCCC4)c(Cl)c3)cc21 |  | 4.13 | 2.75 |  | 
57 | CC1Sc2ccc(C(=O)Nc3ccc(S(=O)(=O)N(C)C(C)C)cc3)cc2NC1=O (stereo not drawn) | 8 | 0.92 | 38.9 |  | 
58 | CC1Sc2ccc(C(=O)Nc3cccc(S(=O)(=O)N4CCN(C(=O)OC(C)(C)C)CC4)c3)cc2NC1=O (stereo not drawn) | 18 | 36.4 | 1.76 |  | 
59 | CC1Sc2ccc(C(=O)Nc3cccc(S(=O)(=O)NC4CCNCC4)c3)cc2NC1=O (stereo not drawn) | > 20 | 96.6 | 54.6 |  | 
60 | CC1Sc2ccc(C(=O)Nc3ccc(S(=O)(=O)N4CCNCC4)cc3)cc2NC1=O (stereo not drawn) | > 20 | 92.4 | 17.5 |  | 
61 | O=C(Nc1ccc(OCc2ccccc2)cc1)c1ccc2snnc2c1 | > 20 | 93.6 | 1.65 |  | 
